# Experimental data published in patent US20250206754A1, “PAN-CHEMOKINE ANTAGONISTS FOR USE IN TREATING CANCER AND IMMUNE DISORDERS” ("Micar Innovation" LTD., priority 2022, published 2025).
# How the values were obtained:
# [1] = molecular target: T1, CCR7 (Homo sapiens, UniProt P32248); experiment: Ca^2+ mobilization assay, CCR7; format: cell-based
# T1 construct: expressed in transfected cells
# T1 sequence (P32248 25-378): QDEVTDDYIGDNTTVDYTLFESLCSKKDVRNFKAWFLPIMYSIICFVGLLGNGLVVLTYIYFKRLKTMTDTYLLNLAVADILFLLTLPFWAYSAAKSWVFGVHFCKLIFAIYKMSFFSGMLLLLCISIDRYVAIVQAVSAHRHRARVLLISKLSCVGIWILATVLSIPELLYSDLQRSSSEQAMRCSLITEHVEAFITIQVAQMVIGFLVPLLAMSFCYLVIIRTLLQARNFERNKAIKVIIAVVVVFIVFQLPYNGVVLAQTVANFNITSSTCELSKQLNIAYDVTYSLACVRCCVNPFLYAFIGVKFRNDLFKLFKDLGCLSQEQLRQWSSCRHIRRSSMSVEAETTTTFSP
# Protocol: Selected compounds were initially sent for both antagonist and agonist TANGO β-arrestin assays. […] Replacement only on the amide group with CN led to strong activity decrease in β-arrestin assay: only 31% activity at about 30 μM and similar one at 100 μM (Table 1). Five more derivatives with replaced amide group were also tested in parallel by Ca^2+ mobilization assay and they all were not active up to the tested concertation of 100 μM.
# To examine the colloid aggregation possibility a β-lactamase enzymatic activity counterscreen assay was performed, which is the commonly adopted tool for detection of such properties of the compounds.
# [2] = test system: IL-8 release; conditions: Homo sapiens, read-out: EC50, IL8 release
# Protocol: For this purpose a model for the inhibition of CCL2 release from IL-4, IL-13, IL-22 and IFNγ-stimulated primary human keratinocytes (Eczematous inflammation) was used and also an assay for the inhibition of IL-8 release from IL-17A and TNFα (Psoriatic inflammation). […] Finally, migration assay by MB231cell line was performed.
compound,measurement,setting,value
"NC(=O)c1ccccc1Oc1ncnc2sc(-c3ccccc3)cc12 [Hit 1, 2-({6-phenylthieno[2,3-d]pyrimidin-4-yl}oxy)benzamide]",inhibition at 100 µM,"[1]; 100 μM concentration, read-out: Ca^2+ assay (100 μM), Percent of inhibition",63%
same,Kb,[1]; CCR7,2.8 µM
same,Hill slope,"[1]; Ca^2+ mobilization assay, CCR7",2.6
same,IC50,"[1]; Ca^2+ mobilization assay, CCR7",92 µM
same,activity change with 0.01% Triton X-100,"[1]; Ca^2+ mobilization assay, CCR7 expressed cells, preliminary data",no activity change
same,IC50,[1]; similar Ca^2+ mobilization assay in an independent lab (data not shown),25 to 30 µM
same,EC50,[2],0.733 µM
